# According to patent US10160763B2, “WDR5 inhibitors and modulators” (Vanderbilt University, priority 2016, dated 2018):
# Biological target: WDR5 (Δ23, residues 24-334) (Homo sapiens, UniProt P61964)
# Assay: biochemical
# Conditions: Kd (M), FPA-based binding affinity at the WDR5 WIN site; IC50 converted to Kd by modified Cheng-Prusoff equation; average of two experiments
row,SMILES,Kd [M]
1,O=C(NCc1cccc(-c2cn3c(n2)CCC3)c1)c1ccc(F)cc1 [B3],5e-06
2,O=C(NCc1cccc(-c2cn3c(n2)CCC3)c1)c1ccc(Cl)cc1Cl [B4],3.9e-06
3,O=C(NCc1cccc(-c2cn3c(n2)CCC3)c1)c1cc(Cl)cc(Cl)c1 [B5],2.28e-06
4,O=C(/C=C/c1ccccc1)NCc1cccc(-c2cn3c(n2)CCC3)c1 [B12],1.19e-06
5,O=C(CCc1ccccc1)NCc1cccc(-c2cn3c(n2)CCC3)c1 [B13],2.3e-06
6,O=C(NCc1cccc(-c2cn3c(n2)CCC3)c1)c1cccc2cccnc12 [B14],5.19e-06
7,O=C(NCc1cccc(-c2cn3c(n2)CCC3)c1)c1ccc(Cl)nc1 [B17],1.86e-06
8,O=C(Cc1cc(Cl)cc(Cl)c1)NCc1cccc(-c2cn3c(n2)CCC3)c1 [B18],2.08e-07
9,O=C(CCc1ccccc1)N(Cc1cccc(-c2cn3c(n2)CCC3)c1)CC1CC1 [B19],1.82e-06
10,O=C(CC1CCCCC1)NCc1cccc(-c2cn3c(n2)CCC3)c1 [B20],3.63e-06
11,"Cc1ccc(C(=O)NCc2cccc(-c3cn4c(n3)CCC4)c2)cc1C [B21, N-(3-(6,7-Dihydro-5H-pyrrolo[1,2-a]imidazol-2-yl)benzyl)-3,4-dimethylbenzamide]",7.04e-07
12,O=C(NCc1cccc(-c2cn3c(n2)CCC3)c1)Nc1ccccc1 [B22],3.83e-06
13,COc1cccc(C(=O)N(Cc2cc(-c3cn4c(n3)CCC4)ccc2C)CC2CC2)c1 [B23],3.35e-07
14,COc1cccc(NC(=O)NCc2cccc(-c3cn4c(n3)CCC4)c2)c1 [B24],2.05e-07
15,"CC(=O)N1CCC(C(=O)NCc2cccc(-c3cn4c(n3)CCC4)c2)CC1 [B25, 1-Acetyl-N-(3-(6,7-dihydro-5H-pyrrolo[1,2-a]imidazol-2-yl)benzyl)piperidine-4-carboxamide]",1.37e-06
16,O=C(NCc1cccc(-c2cn3c(n2)CCC3)c1)c1ccc(O)nc1 [B26],2.68e-06
17,O=C(NCc1cccc(-c2cn3c(n2)CCC3)c1)C1CCNCC1 [B27],4.19e-06
18,COc1cccc(C(=O)N(Cc2cc(C)cc(-c3cn4c(n3)CCC4)c2)CC2CC2)c1 [B28],7.24e-07
19,O=C(CCc1cccnc1)NCc1cccc(-c2cn3c(n2)CCC3)c1 [B30],3.36e-06
20,COc1cccc(NC(=O)N(C)Cc2cccc(-c3cn4c(n3)CCC4)c2)c1 [B31],3.24e-07
21,O=C(NCc1cccc(-c2cn3c(n2)CCC3)c1)Nc1cc(Cl)cc(Cl)c1 [B33],3.52e-06
22,O=C(NCc1ccccc1)NCc1cccc(-c2cn3c(n2)CCC3)c1 [B34],2.71e-06

row,SMILES,Kd [M]
1,COc1cccc(C(=O)N(Cc2ccccc2)Cc2cccc(-c3cn4c(n3)CCC4)c2)c1 [B35],2.43e-07
2,COc1cccc(C(=O)N(Cc2cccc(-c3cn4c(n3)CCC4)c2)CC2CCCCC2)c1 [B36],2.58e-07
3,Cc1cc(C(=O)N(C)Cc2cccc(-c3cn4c(n3)CCC4)c2)ccc1Cl [B38],4.48e-07
4,O=C(NCc1cccc(-c2cn3c(n2)CCC3)c1)C1CC1c1ccccc1 (stereo not drawn) [B39],5.61e-07
5,COc1cccc(C(=O)N(Cc2cccc(-c3cn4c(n3)CCC4)c2)CC2CCCC2)c1 [B41],2.95e-07
6,O=C(NCc1cccc(-c2cn3c(n2)CCC3)c1)C1CCc2ccccc2C1 (stereo not drawn) [B42],5.26e-07
7,O=C(NCc1cccc(-c2cn3c(n2)CCC3)c1)C1CCCNC1 (stereo not drawn) [B43],6.3e-07
8,Cc1cc(C(=O)N(Cc2cccc(-c3cn4c(n3)CCC4)c2)CC2CC2)ccc1Cl [B44],2.96e-05
9,Cc1cc(NC(=O)NCc2cccc(-c3cn4c(n3)CCC4)c2)ccc1Cl [B45],3.91e-07
10,COc1ccc(C(=O)N(Cc2cc(Cl)cc(-c3cn4c(n3)CCC4)c2)CC2CC2)cc1OC [B46],1.25e-07
11,O=C(C1CCCNC1)N(Cc1cccc(-c2cn3c(n2)CCC3)c1)CC1CC1 (stereo not drawn) [B48],2.71e-05
12,O=C(Nc1cc(Cl)cc(Cl)c1)N(Cc1cccc(-c2cn3c(n2)CCC3)c1)CC1CC1 [B50],4.8e-07
13,O=C(C1CC1c1ccccc1)N(Cc1cccc(-c2cn3c(n2)CCC3)c1)CC1CC1 (stereo not drawn) [B51],4.85e-07
14,COc1ccc(C(=O)N(Cc2cccc(-c3cn4c(n3)CCC4)c2)C2CC2)cc1OC [B53],1.14e-06
15,O=C(NCc1cccc(-c2cn3c(n2)CCC3)c1)c1ccc2c(c1)OCCO2 [B54],8.08e-07
16,COc1ccc(C(=O)N(Cc2cccc(-c3cn4c(n3)CCC4)c2)C(C2CC2)C2CC2)cc1OC [B55],5.25e-06
17,O=C(NCc1cccc(-c2cn3c(n2)CCC3)c1)c1ccc2c(c1)OCO2 [B56],1.18e-06
18,COc1ccc(C(=O)N(CCc2ccccc2)Cc2cccc(-c3cn4c(n3)CCC4)c2)cc1OC [B57],4.46e-06
19,CC(=O)N1CCCC(C(=O)N(Cc2cccc(-c3cn4c(n3)CCC4)c2)CC2CC2)C1 (stereo not drawn) [B58],7.9e-07
20,COc1ccc(C(=O)N(Cc2cccc(-c3cn4c(n3)CCC4)c2)CC2CC2)cc1OC [B59],6.18e-07
21,"O=C(Cc1cc(Cl)cc(Cl)c1)N(Cc1cccc(-c2cn3c(n2)CCC3)c1)CC1CC1 [B60, N-(Cyclopropylmethyl)-2-(3,5-dichlorophenyl)-N-(3-(6,7-dihydro-5H-pyrrolo[1,2-a]imidazol-2-yl)benzyl)acetamide]",2.85e-07
22,C[C@H](C(=O)N(Cc1cccc(-c2cn3c(n2)CCC3)c1)CC1CC1)c1ccccc1 [B61],6.45e-07

row,SMILES,Kd [M]
1,O=C(C1CCc2ccccc2C1)N(Cc1cccc(-c2cn3c(n2)CCC3)c1)CC1CC1 (stereo not drawn) [B62],2.81e-06
2,COc1ccc(C(=O)N(Cc2cccc(-c3cn4c(n3)CCC4)c2)Cc2ccc(F)c(F)c2)cc1OC [B63],7.51e-07
3,COc1cccc(CN(Cc2cccc(-c3cn4c(n3)CCC4)c2)C(=O)c2ccc(OC)c(OC)c2)c1 [B64],5.38e-07
4,COc1ccc(CN(Cc2cccc(-c3cn4c(n3)CCC4)c2)C(=O)c2ccc(OC)c(OC)c2)cc1 [B65],4.15e-07
5,COc1ccc(C(=O)N(Cc2ccc(C)cc2)Cc2cccc(-c3cn4c(n3)CCC4)c2)cc1OC [B66],5.53e-07
6,O=C(NCc1cccc(-c2cn3c(n2)CCC3)c1)C(c1ccccc1)c1ccccc1 [B67],1.06e-06
7,COc1ccc(C(=O)N(Cc2cccc(-c3cn4c(n3)CCC4)c2)C(C)c2cccc(Cl)c2)cc1OC (stereo not drawn) [B68],3.72e-06
8,COC(=O)c1cc(CN(CC2CC2)C(=O)c2ccc(OC)c(OC)c2)cc(-c2cn3c(n2)CCC3)c1 [B69],3.05e-07
9,COc1ccc(C(=O)N(Cc2cccc(-c3cn4c(n3)CCC4)c2)C(C)c2ccccc2)cc1OC (stereo not drawn) [B70],5.98e-06
10,CN(Cc1cccc(-c2cn3c(n2)CCC3)c1)C(=O)Cc1cc(Cl)cc(Cl)c1 [B71],6.12e-07
11,CC(C)N(Cc1cccc(-c2cn3c(n2)CCC3)c1)C(=O)Nc1cc(Cl)cc(Cl)c1 [B72],3.01e-07
12,CC(C)N(Cc1cccc(-c2cn3c(n2)CCC3)c1)C(=O)Cc1cc(Cl)cc(Cl)c1 [B73],1.9e-06
13,CN(Cc1cccc(-c2cn3c(n2)CCC3)c1)C(=O)Nc1cc(Cl)cc(Cl)c1 [B74],8.21e-07
14,CC(C(=O)N(Cc1cccc(-c2cn3c(n2)CCC3)c1)C(C)C)c1cc(Cl)cc(Cl)c1 (stereo not drawn) [B75],4.1e-07
15,CCOc1cccc(C(=O)NCc2cccc(-c3cn4c(n3)CCC4)c2)c1 [B78],1.48e-07
16,CCOc1cccc(C(=O)N(Cc2cccc(-c3cn4c(n3)CCC4)c2)CC2CC2)c1 [B79],4.91e-07
17,COc1cccc(C(=O)N(Cc2cccc(-c3cn4c(n3)CCC4)c2)C(C2CC2)C2CC2)c1 [B81],1.18e-07
18,O=C(Cc1ccc(Cl)c(F)c1)NCc1cccc(-c2cn3c(n2)CCC3)c1 [B82],5.02e-07
19,COc1cccc(C(=O)N(Cc2cccc(-c3cn4c(n3)CCC4)c2)C(C)c2cccc(Cl)c2)c1 (stereo not drawn) [B83],4.51e-07
20,CC(C(=O)NCc1cccc(-c2cn3c(n2)CCC3)c1)c1ccccc1 (stereo not drawn) [B84],4.35e-07
21,COc1cccc(C(=O)N(Cc2cccc(-c3cn4c(n3)CCC4)c2)CC(C)C)c1 [B85],2.85e-06
22,CCC(C)N(Cc1cccc(-c2cn3c(n2)CCC3)c1)C(=O)c1cccc(OC)c1 (stereo not drawn) [B86],4.25e-07

row,SMILES,Kd [M]
1,CCC(C1CC1)N(Cc1cccc(-c2cn3c(n2)CCC3)c1)C(=O)c1cccc(OC)c1 (stereo not drawn) [B87],8.63e-07
2,COc1cccc(CC(=O)NCc2cccc(-c3cn4c(n3)CCC4)c2)c1 [B88],8.9e-07
3,COc1cccc(C(=O)N(Cc2cc(-c3cn4c(n3)CCC4)ccc2F)CC2CC2)c1 [B90],4.24e-05
4,O=C(Cc1ccc(Cl)c(Cl)c1)N(Cc1cc(-c2cn3c(n2)CCC3)ccc1OCC1CC1)CC1CC1 [B100],2e-07
5,O=C(Cc1ccc(Cl)c(Cl)c1)NCc1cc(-c2cn3c(n2)CCC3)ccc1N1CCCCC1 [B101],2.75e-05
6,COc1cccc(C(=O)N(Cc2cc(-c3cn4c(n3)CCC4)ccc2N2CCCC2)CC2CC2)c1 [B102],5.1e-07
7,COc1cccc(C(=O)NCc2cc(-c3cn4c(n3)CCC4)ccc2N2CCCCC2)c1 [B103],1.04e-07
8,O=C(Cc1ccc(Br)cc1)NCc1cccc(-c2cn3c(n2)CCC3)c1 [B106],1.33e-07
9,O=C(CC12C[C@H]3C[C@@H](C1)C[C@@H](C2)C3)NCc1cccc(-c2cn3c(n2)CCC3)c1 [B107],5.6e-08
10,O=C(Cc1ccc(Cl)c(Cl)c1)NCc1cc(-c2cn3c(n2)CCC3)ccc1OC1CCCC1 [B109],1e-05
11,CCOc1cccc(C(=O)N(C)Cc2cccc(-c3cn4c(n3)CCC4)c2)c1 [B110],1e-09
12,O=C(Cc1ccc(Cl)c(Cl)c1)NCc1cc(-c2cn3c(n2)CCC3)ccc1-c1ccccc1 [B111],2e-08
13,COc1cccc(C(=O)NCc2cc(-c3cn4c(n3)CCC4)ccc2N2CCCC2)c1 [B114],4.73e-07
14,COc1cccc(C(=O)NCc2cc(-c3cn4c(n3)CCC4)ccc2OCc2ccccc2)c1 [B115],1.3e-08
15,O=C(Cc1ccc(Cl)c(Cl)c1)NCc1cc(-c2cn3c(n2)CCC3)ccc1OCc1ccccc1 [B116],2.76e-07
16,COc1cccc(C(=O)NCc2cc(-c3cn4c(n3)CCC4)ccc2OC2CCCC2)c1 [B117],1e-05
17,O=C(Cc1ccc(Cl)c(Cl)c1)NCc1cc(-c2cn3c(n2)CCC3)ccc1N1CCCC1 [B118],7.6e-08
18,COc1cccc(C(=O)NCc2cc(-c3cn4c(n3)CCC4)ccc2Oc2ccccc2)c1 [B119],1.8e-08
19,O=C(Cc1ccc(O)c(Cl)c1)NCc1cccc(-c2cn3c(n2)CCC3)c1 [B120],2.32e-07
20,Cn1cc(CC(=O)NCc2cccc(-c3cn4c(n3)CCC4)c2)c2ccccc21 [B121],2.78e-05
21,O=C(Cc1c[nH]c2ccccc12)NCc1cccc(-c2cn3c(n2)CCC3)c1 [B122],2.64e-07
